For one series, the target named is Pgp (Homo sapiens, UniProt P08183). The following applies: cell culture model; cited from earlier work.
Series [1] in a line: phase II trial, dose modifications in ER+/ERBB2-negative cohort (safety population). The series is classed as in vivo, human. As to conditions: Arm 1 (paclitaxel plus alisertib), n=66. The protocol:
Administration of 5 μg/kg filgrastim was allowed for treatment-limiting neutropenia, and loperamide was used to treat diarrhea but was not allowed prophylactically in cycle 1.
Incidence and grades of AEs for all patients were analyzed using the safety population which included all patients (eligible and ineligible) who received at least 1 dose of study drug. Toxic effects were reported and tabulated by numbers and frequencies for all related AEs. SAS statistical software version 9.4 (SAS Institute) was used for all data analysis. Data were analyzed from March through May 2019.

For series [2], the system named is breast cancer xenograft models. The following applies: alisertib added to either paclitaxel or docetaxel; cited from earlier work.

Sequence of Pgp (P08183 whole entry): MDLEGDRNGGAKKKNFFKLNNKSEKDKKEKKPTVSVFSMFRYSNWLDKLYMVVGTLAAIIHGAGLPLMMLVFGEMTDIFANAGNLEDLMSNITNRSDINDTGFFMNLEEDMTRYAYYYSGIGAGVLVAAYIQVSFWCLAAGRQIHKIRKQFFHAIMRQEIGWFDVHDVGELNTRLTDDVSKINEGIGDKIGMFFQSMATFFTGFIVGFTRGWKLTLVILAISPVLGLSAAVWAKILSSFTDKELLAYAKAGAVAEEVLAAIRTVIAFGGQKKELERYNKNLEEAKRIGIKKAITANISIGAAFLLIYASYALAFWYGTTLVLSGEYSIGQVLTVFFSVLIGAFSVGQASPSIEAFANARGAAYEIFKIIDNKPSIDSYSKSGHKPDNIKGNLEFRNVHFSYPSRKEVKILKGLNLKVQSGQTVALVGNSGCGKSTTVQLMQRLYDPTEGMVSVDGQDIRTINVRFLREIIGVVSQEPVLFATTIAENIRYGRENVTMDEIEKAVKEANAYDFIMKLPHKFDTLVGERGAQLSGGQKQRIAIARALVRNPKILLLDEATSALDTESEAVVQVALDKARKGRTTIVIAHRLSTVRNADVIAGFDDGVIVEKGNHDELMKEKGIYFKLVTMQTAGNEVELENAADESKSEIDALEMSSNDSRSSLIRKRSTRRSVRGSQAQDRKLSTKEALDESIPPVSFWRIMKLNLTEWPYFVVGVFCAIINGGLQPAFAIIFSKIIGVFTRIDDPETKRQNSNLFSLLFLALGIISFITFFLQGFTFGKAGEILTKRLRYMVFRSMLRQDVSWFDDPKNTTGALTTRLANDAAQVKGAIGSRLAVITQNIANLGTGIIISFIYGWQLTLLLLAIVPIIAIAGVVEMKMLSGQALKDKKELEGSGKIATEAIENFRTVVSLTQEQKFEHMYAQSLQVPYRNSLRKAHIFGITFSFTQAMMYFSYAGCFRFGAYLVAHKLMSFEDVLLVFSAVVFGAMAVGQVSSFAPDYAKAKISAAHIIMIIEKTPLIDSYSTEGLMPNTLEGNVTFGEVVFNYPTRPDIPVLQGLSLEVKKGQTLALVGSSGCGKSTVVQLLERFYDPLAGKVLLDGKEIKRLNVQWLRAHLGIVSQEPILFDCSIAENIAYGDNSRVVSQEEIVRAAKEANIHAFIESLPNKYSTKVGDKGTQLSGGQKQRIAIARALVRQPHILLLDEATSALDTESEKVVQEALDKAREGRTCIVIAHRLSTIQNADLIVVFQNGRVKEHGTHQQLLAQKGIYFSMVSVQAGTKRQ

In the case of `COc1cc(Nc2ncc3c(n2)-c2ccc(Cl)cc2C(c2c(F)cccc2OC)=NC3)ccc1C(=O)O` [Alisertib, 4-{[9-chloro-7-(2-fluoro-6-methoxyphenyl)-5H-pyrimido[5,4-d][2]benzazepin-2-yl]amino}-2-methoxybenzoic acid], the “Pgp-mediated efflux of paclitaxel” value on Pgp is reported as “inhibited Pgp-mediated efflux of paclitaxel”. Further, in series [1], the “Patients with both dose delay and reduction” value is recorded as “(62.1) %”; the “Patients with dose delay alone” value is on record as “(18.2) %”; the “Patients with dose discontinuation” value is “(30.3) %”; the “Patients with dose increased” value is recorded as “(1.5) %”. For the same compound, the “Patients with dose reduction alone” value in series [1] was “(7.6) %”. Also, the “Patients with both dose delay and reduction” value in series [1] (listed as alisertib) was determined as 62.1%. For the same compound, the “effect of combination in breast cancer xenograft models” value in series [2] is recorded as “Synergistic or additive effects”.

The values above are taken from patent US20250268909A1, “Combination Therapy” (US Oncology Corporate, Inc., priority 2022, published 2025).
